Numbered stars: 1 amine (or outer) side, 2 acyl side, 3 side chain; on linkers, the order of the positions; unused ones are H or OH. Bridge positions count the residues as written; N and C are the ends. Square brackets hold non-standard residues; d marks the D form. Peptide text beside a SMILES is read from it. CH2(3,3'-bipyridine-6,6')CH2 = c1cc(C[*:1])ncc1-c1ccc(C[*:2])nc1
Legend:
[1] = target: T1, GST-Mcl-1 (Homo sapiens, UniProt Q07820); assay: FP binding affinity of fluorescein-labeled peptides, Mcl-1; details: FP assay, fluorescein-labeled peptide
[2] = target: GST-Bcl-xL (Homo sapiens, UniProt Q07817); assay: FP binding affinity of fluorescein-labeled peptides, Bcl-xL; details: FP assay, fluorescein-labeled peptide; read-out: GST-Bcl-xL Kd
[3] = tested on: HeLa cells; assay: FACS analysis of cell permeability of fluorescein-conjugated peptides; assay type: cell-based; details: 10 μM fluorescein-conjugated peptide, 2 h
Description: FACS Analysis. HeLa Cells were cultured in DMEM medium supplemented with 10% fetal bovine serum in 6-well plate in a 37° C., 5% CO2 incubator to reach confluency of around 70%. The cells were then washed twice with PBS before switching to serum-free DMEM medium. After standing in the incubator for 30 minutes, appropriate amounts of peptides (1 mM in DMSO) were added to the culture plate to obtain a final peptide concentration of 10 μM. Cells were incubated at 37° C. for additional 2 hrs. Then the medium was removed and the cells were washed with PBS (3×) followed by treatment with trypsin to detach the cells. After a brief low-speed centrifugation, the HeLa cells were collected and re-suspended in PBS for the FACS analysis.

[4] = tested on: HeLa cells; assay: Confocal microscopy of fixed HeLa cells, cellular fluorescence; assay type: cell-based; details: 10 μM fluorescein-conjugated peptide, 2 hours
Description: (§1) FIG. 8. (a) Confocal images of fixed HeLa cells after treatment with 10 μM of fluorescein-conjugated peptides for 2 hours. Scale bar=50 μm. (b) Cell viability assay using the CellTiter-Glo reagent.
HeLa Cells were seeded into 35 mm glass bottom microwell dishes (MatTek, Ashland, Mass.) at a density of 3×105 in DMEM medium supplemented with 10% fetal bovine serum, and the cells were allowed to grow in a 37° C. 5% CO2 incubator for 48 hours. After removing medium, the cells were washed twice with PBS and then incubated in serum-free DMEM medium for 30 minutes. Appropriate amounts of peptides (1 mM in DMSO) were then added to obtain a final concentration of 10 μM and cells were incubated at 37° C. for 2 hours. After PBS wash, cells were treated with 4% formaldehyde in PBS for 20 minutes at room temperature. The fixation medium was removed and the cells were washed with PBS (3×) before placing cells into the low florescent mounting medium for fluorescent imaging acquisition.

[5] = tested on: HeLa cells; assay: Cell viability assay (CellTiter-Glo, ATP) and DIC imaging, cytotoxicity; assay type: cell-based; details: 10 μM, 2 hours; DIC channel and ATP assay
Description: as §1
Cell Viability Assay. HeLa cells were seeded into an opaque 96-well plate at a density of 1×10^4 per well in 100 μL DMEM medium supplemented with 10% FBS and the cells were allowed to grow in a 37° C. 5% CO2 incubator for 48 hrs to reach confluency of around 80%. Prior to the compound treatment, the medium was replaced with serum-free medium and the cells were incubated for 30 minutes. Appropriate amounts of peptides (1 mM in DMSO) were then added to obtain a final concentration of 10 μM and the cells were incubated at 37° C. for 2 hours. Afterwards, the plate was allowed to stand at room temperature for 30 minutes before 100 μL of Cell-Titer Glow reagent (Promega) was added. The plate was incubated at room temperature for 10 minutes. The luminescence signals were recorded with an FLX 800 luminescence plate reader (BioTek). The plotted data represented the average of the readings from 4 separate wells.

[6] = Circular dichroism, percent helicity; assay type: physicochemical; details: compared to the linear NoxaBH3 peptide, 50 μM in 20% ACN/H2O
Description: FIG. 12. […] The peptides were dissolved in 20% ACN/H2O for a final concentration of 50 μM.
Circular Dichroism Study. […] The spectra were recorded in the wavelength range of 190-250 nm and averaged over 3 scans with a resolution of 0.5 nm, a bandwidth of 1.0 nm and a response time of 4 s. The sensitivity and the speed of the spectrometer were set to 100 mdeg and 50 nm/min, respectively. All peptides were dissolved in 20% acetonitrile/H2O to reach final concentration of 50 μM.

[7] = target: T1, GST-Mcl-1; assay: Competitive fluorescence polarization assay; assay type: binding
Description: Competitive Florescence Polarization Assay. The binding affinity of the Noxa peptides toward GST-Mcl-1 was determined in a competitive fluorescence polarization assay with the fluorescein-labeled Bak or Bim. Briefly, fluorescein-labeled Bak was incubated with GST-Mcl-1 in a binding buffer (PBS, 0.005% Tween-20, pH7.4) at room temperature in a 96-well microtiter plate. […] The reading was repeated at various time points to ensure that the competition has reached equilibrium.

[8] = target: Mcl-1 (Homo sapiens, UniProt Q07820); assay: ELISA of cross-linked Noxa peptides; assay type: binding
[9] = tested on: HeLa cells; assay: Cellular uptake of fluorescein-labeled Noxa peptides by FACS and fluorescence microscopy; assay type: cell-based; details: 10 μM fluorescein-labeled peptide, 2 hours
Description: FIG. 13. […] (a) Flow cytometry analysis of cell permeability of the FITC-labeled linear or stapled peptide. HeLa cells were treated with 10 μM of fluorescein-labeled peptides in serum-free DMEM medium for 2 hours followed by fixation with formaldehyde. (b) Fluorescent micrographs of HeLa cells treated with 10 μM of fluorescein-labeled (Fl) linear or cross-linked NoxaBH3 peptide. Scale bar=50 μm.
To investigate cellular uptake of the cross-linked peptides, the N-terminal fluorescein-labeled cross-linked NoxaBH3 peptides (5a, 6a, 7a, 8a) and linear peptide Fl-Noxa-(75-93)-C75A were prepared and their uptakes into HeLa cells were examined by both FACS and fluorescence microscopy. […] To examine whether the cross-linked peptides induce apoptosis, Mcl-1-overexpressing Raji cells and K562 cells co-transfected with Mcl-1/BimEL were treated with the cross-linked peptides and the cell viabilities were measured by CellTiter-Glo reagent. […] For the remaining peptides, the following SEQ ID NOs apply: peptide 9a and 10A are SEQ ID NO:17; 11a and 12 a are SEQ ID NO:18; 5c, 5d, 5e, Fluo-5a, Fluo-6a, and Fluo-6b are SEQ ID NO:16; Fluo-NoxaB^75-94-C75A is SEQ ID NO:15; and Fluo-71 is SEQ ID NO:17.

T1 sequence (Q07820 whole entry): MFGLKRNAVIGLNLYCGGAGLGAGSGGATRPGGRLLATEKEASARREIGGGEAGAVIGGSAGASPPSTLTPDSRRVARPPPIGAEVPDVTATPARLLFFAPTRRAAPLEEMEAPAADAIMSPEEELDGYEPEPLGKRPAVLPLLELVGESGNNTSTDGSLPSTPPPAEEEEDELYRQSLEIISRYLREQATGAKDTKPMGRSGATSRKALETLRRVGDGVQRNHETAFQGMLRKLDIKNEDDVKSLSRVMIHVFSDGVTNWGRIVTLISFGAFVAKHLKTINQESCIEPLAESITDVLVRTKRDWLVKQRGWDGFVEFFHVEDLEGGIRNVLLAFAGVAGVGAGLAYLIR
Chain of GST-Bcl-xL (Q07817 whole entry): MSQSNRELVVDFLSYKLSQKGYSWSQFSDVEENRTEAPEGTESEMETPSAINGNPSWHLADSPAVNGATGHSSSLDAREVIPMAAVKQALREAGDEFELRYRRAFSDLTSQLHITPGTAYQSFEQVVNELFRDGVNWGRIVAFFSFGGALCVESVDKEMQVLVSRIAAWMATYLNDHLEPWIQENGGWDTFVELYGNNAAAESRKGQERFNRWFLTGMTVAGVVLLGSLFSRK
Chain of Mcl-1 (Q07820 whole entry, species assumed): as the sequence (Q07820 whole entry) above

Kd [1] [nM]	Kd [2] [nM]	Compound	cellular fluorescence, FITC channel [4]	cytotoxicity [5]	enhancement in percent helicity [6]	cellular uptake [9]	other results
0.8 ± 0.1	> 2000	CC[C@H](C)[C@@H]1NC(=O)[C@H](CCCNC(=N)N)NC(=O)[C@H](CCCNC(=N)N)NC(=O)[C@H](CC(C)C)NC(=O)[C@@H](NC(=O)[C@H](C)NC(=O)[C@H](C)NC(=O)CCCCCNC(=S)Nc2ccc3c(c2)C(=O)OC32c3ccc(O)cc3Oc3cc(O)ccc32)CSCc2ccc(cc2)-c2ccc(cc2)CSC[C@@H](C(=O)N[C@H](C(=O)N[C@@H](CC(N)=O)C(=O)N[C@@H](CC(C)C)C(=O)N[C@@H](CCCNC(=N)N)C(=O)N[C@@H](CCC(N)=O)C(=O)N[C@@H](CCCCN)C(=O)N[C@@H](CC(C)C)C(=O)N[C@@H](CC(C)C)C(=O)N[C@@H](CC(N)=O)C(N)=O)C(C)C)NC(=O)[C@H](CC(=O)O)NC(=O)CNC1=O [Fl-5a]					
0.7 ± 0.1	> 2000	CC[C@H](C)[C@@H]1NC(=O)[C@H](CCCNC(=N)N)NC(=O)[C@H](CCCNC(=N)N)NC(=O)[C@H](CC(C)C)NC(=O)[C@H](NC(=O)[C@H](C)NC(=O)[C@H](C)NC(=O)CCCCCNC(=S)Nc2ccc3c(c2)C(=O)OC32c3ccc(O)cc3Oc3cc(O)ccc32)CSCc2ccc(cc2)-c2ccc(cc2)CSC[C@@H](C(=O)N[C@H](C(=O)N[C@@H](CC(N)=O)C(=O)N[C@@H](CC(C)C)C(=O)N[C@@H](CCCNC(=N)N)C(=O)N[C@@H](CCC(N)=O)C(=O)N[C@@H](CCCCN)C(=O)N[C@@H](CC(C)C)C(=O)N[C@@H](CC(C)C)C(=O)N[C@@H](CC(N)=O)C(N)=O)C(C)C)NC(=O)[C@H](CC(=O)O)NC(=O)CNC1=O [Fl-6a]					

Further lines, the molecule ahead of its results:

Compound	Kd [1] [nM]	Kd [2] [nM]	cellular fluorescence, FITC channel [4]	cytotoxicity [5]	enhancement in percent helicity [6]	cellular uptake [9]	other results
CC(=O)N[C@@H](CC(C)C)C(=O)N[C@H](C(=O)N[C@@H](Cc1ccccc1)C(=O)N[C@H]1CSCc2ccc(cn2)-c2ccc(nc2)CSC[C@@H](C(=O)N[C@@H](CO)C(N)=O)NC(=O)[C@H](CC(C)C)NC(=O)[C@H](CCCNC(=N)N)NC(=O)[C@H](C)NC(=O)[C@H](Cc2c[nH]c3ccccc23)NC(=O)[C@H](Cc2ccc(O)cc2)NC(=O)[C@H](CCCNC(=N)N)NC1=O)[C@@H](C)O [Peptide 2b, LTFC″RYWARLC″S] (Ac-LTFCRYWARLCS-NH2; linker 4-11 via CH2(3,3'-bipyridine-6,6')CH2)			strongest cellular fluorescence	apparent cytotoxicity			increase in mean fluorescence / permeability by arginine substitution ([3]; compared to charge-neutral counterpart): 2 fold; increase in mean fluorescence by Bpy cross-linking ([3]; over linear counterpart): ~5 fold
CC(=O)N[C@@H](CC(C)C)C(=O)N[C@H](C(=O)N[C@@H](Cc1ccccc1)C(=O)N[C@@H]1CSCc2ccc(cn2)-c2ccc(nc2)CSC[C@@H](C(=O)N[C@@H](CO)C(N)=O)NC(=O)[C@H](CC(C)C)NC(=O)[C@H](CCCNC(=N)N)NC(=O)[C@H](C)NC(=O)[C@H](Cc2c[nH]c3ccccc23)NC(=O)[C@H](Cc2ccc(O)cc2)NC(=O)[C@H](CCCNC(=N)N)NC1=O)[C@@H](C)O [Peptide 4b, LTFc″RYWARLC″S] (Ac-LTF[dC]RYWARLCS-NH2; linker 4-11 via CH2(3,3'-bipyridine-6,6')CH2; C-terminus assumed)			strongest cellular fluorescence	apparent cytotoxicity			
CC[C@H](C)[C@@H]1NC(=O)[C@H](CCCNC(=N)N)NC(=O)[C@H](CCCNC(=N)N)NC(=O)[C@H](CC(C)C)NC(=O)[C@H](NC(=O)[C@H](C)NC(=O)[C@H](C)NC(C)=O)CSCc2ccc(cc2)-c2ccc(cc2)CSC[C@@H](C(=O)N[C@H](C(=O)N[C@@H](CC(N)=O)C(=O)N[C@@H](CC(C)C)C(=O)N[C@@H](CCCNC(=N)N)C(=O)N[C@@H](CCC(N)=O)C(=O)N[C@@H](CCCCN)C(=O)N[C@@H](CC(C)C)C(=O)N[C@@H](CC(C)C)C(=O)N[C@@H](CC(N)=O)C(N)=O)C(C)C)NC(=O)[C@H](CC(=O)O)NC(=O)CNC1=O [Peptide 6a]					roughly 2 fold	robust uptakes	IC50 ([7]; Noxa peptides, three repeats ± SD, read-out: FP, IC50): 73 ± 18 nM; increase in activity in FPA ([7]; compared to the parent linear peptide): 37 fold; IC50 [8]: 260 nM
CC[C@H](C)[C@@H]1NC(=O)[C@H](CCCNC(=N)N)NC(=O)[C@H](CCCNC(=N)N)NC(=O)[C@H](CC(C)C)NC(=O)[C@@](C)(NC(=O)[C@H](C)NC(=O)[C@H](C)NC(C)=O)CSCc2ccc(cc2)-c2ccc(cc2)CSC[C@@](C)(C(=O)N[C@H](C(=O)N[C@@H](CC(N)=O)C(=O)N[C@@H](CC(C)C)C(=O)N[C@@H](CCCNC(=N)N)C(=O)N[C@@H](CCC(N)=O)C(=O)N[C@@H](CCCCN)C(=O)N[C@@H](CC(C)C)C(=O)N[C@@H](CC(C)C)C(=O)N[C@@H](CC(N)=O)C(N)=O)C(C)C)NC(=O)[C@H](CC(=O)O)NC(=O)CNC1=O [Peptide 8a]					~3 fold	robust uptakes	

— US9029332B2, “Cross-linked peptides and proteins, methods of making same, and uses thereof” (The Research Foundation for The State University of New York, priority 2010, dated 2015)
